Source: PMC6478789, “A chemical toolbox for the study of bromodomains and epigenetic signaling” (Nature Communications, 2019)

Biological target: T1, SUV420H1 (Homo sapiens, UniProt Q4FZB7)
T1 construct: purchased DiscoverX BROMOscan (bromodomains); SGC in-house methyltransferase panel
Assay: Methyl transferase scintillation proximity assay
Type: biochemical
Conditions: average of two measurements, read-out: MTases Inhibition (%)
Procedure: (§1) Assays measuring lysine and arginine methyl transferase activity have been described in Scheer et al.. A radioactivity-based scintillation proximity assay was used to monitor incorporation of a tritium-labeled methyl group into the biotinylated substrate of the methyl transferase. A 10-μl reaction containing ^3H-SAM and substrate at concentrations close to the apparent Km values for each enzyme was prepared. The reactions were quenched with 10 μl of 7.5 M guanidine hydrochloride; 180 μl of 20 mM Tris buffer (pH 8.0) were added; and the mixture was transferred to a 96-well FlashPlate and incubated for 1 h. The counts per minute (CPM) was measured on a TopCount plate reader. The CPM in the absence of compound or enzyme was defined as 100% activity and background (0%), respectively, for each dataset.

| SMILES | inhibition at 10 µM |
| --- | --- |
| Cc1nnc2c3ccccc3c(N[C@@H](C)[C@H](c3ccccc3)N(C)C)nn12 [L-Moses] | 4% |
| Cc1c(NC(=O)c2cc(C(N)=O)nc3cc(F)ccc23)c(C(F)(F)F)nn1Cc1ccc(C#N)cc1 [BAY-876] | -1% |
| CO[C@H]1CNC[C@@H](OCC2CCC(F)(F)CC2)[C@@H]1Nc1ncc(-c2cncc(C)c2)c2cc(C)c(=O)[nH]c12 [GSK8814] | -3% |
| Cc1c(NC(=O)c2cc(C(N)=O)nc3cc(F)ccc23)c(C(F)(F)F)nn1Cc1ccc(C(C)(C)C)cc1 [BAY-588] | -5% |

Biological target: T2, PRMT5 (Homo sapiens, UniProt O14744)
T2 construct: purchased DiscoverX BROMOscan (bromodomains); SGC in-house methyltransferase panel
Assay: Methyl transferase scintillation proximity assay
Type: biochemical
Conditions: average of two measurements, read-out: MTases Inhibition (%)
Procedure: as §1

T2 sequence (O14744 whole entry): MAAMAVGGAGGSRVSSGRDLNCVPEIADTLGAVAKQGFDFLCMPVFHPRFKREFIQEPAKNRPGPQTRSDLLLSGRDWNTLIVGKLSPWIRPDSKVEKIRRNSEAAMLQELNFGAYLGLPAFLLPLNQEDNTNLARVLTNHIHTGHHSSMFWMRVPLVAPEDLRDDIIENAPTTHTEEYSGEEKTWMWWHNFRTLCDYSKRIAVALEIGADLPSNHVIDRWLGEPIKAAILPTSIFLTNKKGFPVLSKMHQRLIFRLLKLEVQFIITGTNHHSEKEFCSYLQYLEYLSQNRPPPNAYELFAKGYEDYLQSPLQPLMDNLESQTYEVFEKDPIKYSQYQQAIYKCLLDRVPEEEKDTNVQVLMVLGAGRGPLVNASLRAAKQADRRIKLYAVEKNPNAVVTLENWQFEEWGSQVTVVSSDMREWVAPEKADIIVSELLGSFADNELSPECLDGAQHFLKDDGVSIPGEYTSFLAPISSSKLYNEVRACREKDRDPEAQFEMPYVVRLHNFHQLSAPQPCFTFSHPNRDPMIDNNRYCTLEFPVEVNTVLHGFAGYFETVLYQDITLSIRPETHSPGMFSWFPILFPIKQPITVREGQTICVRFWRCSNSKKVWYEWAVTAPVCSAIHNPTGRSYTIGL
T2 sequence (Q9BQA1 whole entry partner): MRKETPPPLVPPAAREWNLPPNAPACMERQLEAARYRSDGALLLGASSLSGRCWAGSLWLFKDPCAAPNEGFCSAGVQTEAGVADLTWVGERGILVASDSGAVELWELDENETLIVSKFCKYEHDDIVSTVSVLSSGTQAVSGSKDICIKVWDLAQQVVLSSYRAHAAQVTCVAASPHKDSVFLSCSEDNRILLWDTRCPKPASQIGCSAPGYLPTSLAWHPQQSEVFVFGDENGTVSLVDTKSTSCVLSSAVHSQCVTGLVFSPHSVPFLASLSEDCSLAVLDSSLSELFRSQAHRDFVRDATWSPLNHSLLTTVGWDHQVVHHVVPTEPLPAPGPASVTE

| SMILES | inhibition at 10 µM |
| --- | --- |
| Cc1nnc2c3ccccc3c(N[C@@H](C)[C@H](c3ccccc3)N(C)C)nn12 [L-Moses] | -3% |
| Cc1c(NC(=O)c2cc(C(N)=O)nc3cc(F)ccc23)c(C(F)(F)F)nn1Cc1ccc(C#N)cc1 [BAY-876] | -1% |
| CO[C@H]1CNC[C@@H](OCC2CCC(F)(F)CC2)[C@@H]1Nc1ncc(-c2cncc(C)c2)c2cc(C)c(=O)[nH]c12 [GSK8814] | -2% |
| Cc1c(NC(=O)c2cc(C(N)=O)nc3cc(F)ccc23)c(C(F)(F)F)nn1Cc1ccc(C(C)(C)C)cc1 [BAY-588] | 4% |

Biological target: T3, PRMT3 (Homo sapiens, UniProt O60678)
T3 construct: purchased DiscoverX BROMOscan (bromodomains); SGC in-house methyltransferase panel
Assay: Methyl transferase scintillation proximity assay
Type: biochemical
Conditions: average of two measurements, read-out: MTases Inhibition (%)
Procedure: as §1

T3 sequence (O60678 whole entry): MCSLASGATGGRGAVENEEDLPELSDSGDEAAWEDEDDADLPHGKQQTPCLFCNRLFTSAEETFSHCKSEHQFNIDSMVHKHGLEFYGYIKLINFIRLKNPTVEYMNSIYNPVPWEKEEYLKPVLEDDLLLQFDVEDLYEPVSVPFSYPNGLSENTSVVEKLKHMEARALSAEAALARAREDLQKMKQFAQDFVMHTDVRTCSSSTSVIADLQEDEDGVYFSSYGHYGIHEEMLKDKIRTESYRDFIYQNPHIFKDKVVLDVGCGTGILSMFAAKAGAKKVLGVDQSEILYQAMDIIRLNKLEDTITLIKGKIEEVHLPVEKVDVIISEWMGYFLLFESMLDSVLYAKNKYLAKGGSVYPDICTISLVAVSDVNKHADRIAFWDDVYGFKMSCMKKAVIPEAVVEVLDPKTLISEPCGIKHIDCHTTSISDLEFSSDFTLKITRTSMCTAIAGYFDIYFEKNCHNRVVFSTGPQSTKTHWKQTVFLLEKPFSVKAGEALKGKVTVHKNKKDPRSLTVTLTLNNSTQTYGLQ

| SMILES | inhibition at 10 µM |
| --- | --- |
| Cc1nnc2c3ccccc3c(N[C@@H](C)[C@H](c3ccccc3)N(C)C)nn12 [L-Moses] | 0% |
| Cc1c(NC(=O)c2cc(C(N)=O)nc3cc(F)ccc23)c(C(F)(F)F)nn1Cc1ccc(C#N)cc1 [BAY-876] | 1% |
| CO[C@H]1CNC[C@@H](OCC2CCC(F)(F)CC2)[C@@H]1Nc1ncc(-c2cncc(C)c2)c2cc(C)c(=O)[nH]c12 [GSK8814] | 3% |
| Cc1c(NC(=O)c2cc(C(N)=O)nc3cc(F)ccc23)c(C(F)(F)F)nn1Cc1ccc(C(C)(C)C)cc1 [BAY-588] | 5% |

Biological target: T4, DNMT1 (Homo sapiens, UniProt P26358)
T4 construct: purchased DiscoverX BROMOscan (bromodomains); SGC in-house methyltransferase panel
Assay: Methyl transferase scintillation proximity assay
Type: biochemical
Conditions: average of two measurements, read-out: MTases Inhibition (%)
Procedure: as §1

| SMILES | inhibition at 10 µM |
| --- | --- |
| Cc1nnc2c3ccccc3c(N[C@@H](C)[C@H](c3ccccc3)N(C)C)nn12 [L-Moses] | 3% |
| Cc1c(NC(=O)c2cc(C(N)=O)nc3cc(F)ccc23)c(C(F)(F)F)nn1Cc1ccc(C#N)cc1 [BAY-876] | 4% |
| CO[C@H]1CNC[C@@H](OCC2CCC(F)(F)CC2)[C@@H]1Nc1ncc(-c2cncc(C)c2)c2cc(C)c(=O)[nH]c12 [GSK8814] | -3% |
| Cc1c(NC(=O)c2cc(C(N)=O)nc3cc(F)ccc23)c(C(F)(F)F)nn1Cc1ccc(C(C)(C)C)cc1 [BAY-588] | 9% |

Biological target: T5, PRMT1 (Homo sapiens, UniProt Q99873)
T5 construct: purchased DiscoverX BROMOscan (bromodomains); SGC in-house methyltransferase panel
Assay: Methyl transferase scintillation proximity assay
Type: biochemical
Conditions: average of two measurements, read-out: MTases Inhibition (%)
Procedure: as §1

| SMILES | inhibition at 10 µM |
| --- | --- |
| Cc1nnc2c3ccccc3c(N[C@@H](C)[C@H](c3ccccc3)N(C)C)nn12 [L-Moses] | -2% |
| Cc1c(NC(=O)c2cc(C(N)=O)nc3cc(F)ccc23)c(C(F)(F)F)nn1Cc1ccc(C#N)cc1 [BAY-876] | 2% |
| CO[C@H]1CNC[C@@H](OCC2CCC(F)(F)CC2)[C@@H]1Nc1ncc(-c2cncc(C)c2)c2cc(C)c(=O)[nH]c12 [GSK8814] | 3% |
| Cc1c(NC(=O)c2cc(C(N)=O)nc3cc(F)ccc23)c(C(F)(F)F)nn1Cc1ccc(C(C)(C)C)cc1 [BAY-588] | 0% |

Biological target: T6, BCDIN3D (Homo sapiens, UniProt Q7Z5W3)
T6 construct: purchased DiscoverX BROMOscan (bromodomains); SGC in-house methyltransferase panel
T6 sequence (Q7Z5W3 1-292): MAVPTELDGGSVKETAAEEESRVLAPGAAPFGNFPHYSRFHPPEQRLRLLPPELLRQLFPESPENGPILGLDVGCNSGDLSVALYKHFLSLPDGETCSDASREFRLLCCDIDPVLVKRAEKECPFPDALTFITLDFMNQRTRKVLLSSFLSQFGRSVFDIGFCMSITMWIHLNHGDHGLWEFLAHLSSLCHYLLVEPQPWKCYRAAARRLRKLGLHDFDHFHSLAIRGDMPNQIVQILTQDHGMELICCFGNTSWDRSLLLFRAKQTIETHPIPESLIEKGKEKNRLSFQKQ
Assay: Methyl transferase scintillation proximity assay
Type: biochemical
Conditions: average of two measurements, read-out: MTases Inhibition (%)
Procedure: as §1

| SMILES | inhibition at 10 µM |
| --- | --- |
| Cc1nnc2c3ccccc3c(N[C@@H](C)[C@H](c3ccccc3)N(C)C)nn12 [L-Moses] | 9% |
| Cc1c(NC(=O)c2cc(C(N)=O)nc3cc(F)ccc23)c(C(F)(F)F)nn1Cc1ccc(C#N)cc1 [BAY-876] | 17% |
| CO[C@H]1CNC[C@@H](OCC2CCC(F)(F)CC2)[C@@H]1Nc1ncc(-c2cncc(C)c2)c2cc(C)c(=O)[nH]c12 [GSK8814] | 7% |
| Cc1c(NC(=O)c2cc(C(N)=O)nc3cc(F)ccc23)c(C(F)(F)F)nn1Cc1ccc(C(C)(C)C)cc1 [BAY-588] | 16% |

Biological target: T7, ASH1L (Homo sapiens, UniProt Q9NR48)
T7 construct: purchased DiscoverX BROMOscan (bromodomains); SGC in-house methyltransferase panel
Assay: Methyl transferase scintillation proximity assay
Type: biochemical
Conditions: average of two measurements, read-out: MTases Inhibition (%)
Procedure: as §1

| SMILES | inhibition at 10 µM |
| --- | --- |
| Cc1nnc2c3ccccc3c(N[C@@H](C)[C@H](c3ccccc3)N(C)C)nn12 [L-Moses] | -3% |
| Cc1c(NC(=O)c2cc(C(N)=O)nc3cc(F)ccc23)c(C(F)(F)F)nn1Cc1ccc(C#N)cc1 [BAY-876] | 4% |
| CO[C@H]1CNC[C@@H](OCC2CCC(F)(F)CC2)[C@@H]1Nc1ncc(-c2cncc(C)c2)c2cc(C)c(=O)[nH]c12 [GSK8814] | 2% |
| Cc1c(NC(=O)c2cc(C(N)=O)nc3cc(F)ccc23)c(C(F)(F)F)nn1Cc1ccc(C(C)(C)C)cc1 [BAY-588] | -6% |

Biological target: T8, SUV39H2 (Homo sapiens, UniProt Q9H5I1)
T8 construct: purchased DiscoverX BROMOscan (bromodomains); SGC in-house methyltransferase panel
Assay: Methyl transferase scintillation proximity assay
Type: biochemical
Conditions: average of two measurements, read-out: MTases Inhibition (%)
Procedure: as §1

T8 sequence (Q9H5I1 whole entry): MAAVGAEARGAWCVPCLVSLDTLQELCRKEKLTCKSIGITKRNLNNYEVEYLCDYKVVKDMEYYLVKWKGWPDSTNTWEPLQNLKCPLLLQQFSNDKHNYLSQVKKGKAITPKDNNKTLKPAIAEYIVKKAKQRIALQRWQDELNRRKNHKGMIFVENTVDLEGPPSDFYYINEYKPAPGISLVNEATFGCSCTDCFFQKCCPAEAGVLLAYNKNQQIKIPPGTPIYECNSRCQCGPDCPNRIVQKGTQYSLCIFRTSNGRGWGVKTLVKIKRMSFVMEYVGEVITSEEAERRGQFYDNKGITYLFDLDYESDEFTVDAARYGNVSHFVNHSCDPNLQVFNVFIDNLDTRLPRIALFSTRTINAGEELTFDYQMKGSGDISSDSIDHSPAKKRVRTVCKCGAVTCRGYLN

| SMILES | inhibition at 10 µM |
| --- | --- |
| Cc1nnc2c3ccccc3c(N[C@@H](C)[C@H](c3ccccc3)N(C)C)nn12 [L-Moses] | 5% |
| Cc1c(NC(=O)c2cc(C(N)=O)nc3cc(F)ccc23)c(C(F)(F)F)nn1Cc1ccc(C#N)cc1 [BAY-876] | -2% |
| CO[C@H]1CNC[C@@H](OCC2CCC(F)(F)CC2)[C@@H]1Nc1ncc(-c2cncc(C)c2)c2cc(C)c(=O)[nH]c12 [GSK8814] | 3% |
| Cc1c(NC(=O)c2cc(C(N)=O)nc3cc(F)ccc23)c(C(F)(F)F)nn1Cc1ccc(C(C)(C)C)cc1 [BAY-588] | 12% |

Biological target: T9, PRDM9 (Homo sapiens, UniProt Q9NQV7)
T9 construct: purchased DiscoverX BROMOscan (bromodomains); SGC in-house methyltransferase panel
Assay: Methyl transferase scintillation proximity assay
Type: biochemical
Conditions: average of two measurements, read-out: MTases Inhibition (%)
Procedure: as §1

T9 sequence (Q9NQV7 whole entry): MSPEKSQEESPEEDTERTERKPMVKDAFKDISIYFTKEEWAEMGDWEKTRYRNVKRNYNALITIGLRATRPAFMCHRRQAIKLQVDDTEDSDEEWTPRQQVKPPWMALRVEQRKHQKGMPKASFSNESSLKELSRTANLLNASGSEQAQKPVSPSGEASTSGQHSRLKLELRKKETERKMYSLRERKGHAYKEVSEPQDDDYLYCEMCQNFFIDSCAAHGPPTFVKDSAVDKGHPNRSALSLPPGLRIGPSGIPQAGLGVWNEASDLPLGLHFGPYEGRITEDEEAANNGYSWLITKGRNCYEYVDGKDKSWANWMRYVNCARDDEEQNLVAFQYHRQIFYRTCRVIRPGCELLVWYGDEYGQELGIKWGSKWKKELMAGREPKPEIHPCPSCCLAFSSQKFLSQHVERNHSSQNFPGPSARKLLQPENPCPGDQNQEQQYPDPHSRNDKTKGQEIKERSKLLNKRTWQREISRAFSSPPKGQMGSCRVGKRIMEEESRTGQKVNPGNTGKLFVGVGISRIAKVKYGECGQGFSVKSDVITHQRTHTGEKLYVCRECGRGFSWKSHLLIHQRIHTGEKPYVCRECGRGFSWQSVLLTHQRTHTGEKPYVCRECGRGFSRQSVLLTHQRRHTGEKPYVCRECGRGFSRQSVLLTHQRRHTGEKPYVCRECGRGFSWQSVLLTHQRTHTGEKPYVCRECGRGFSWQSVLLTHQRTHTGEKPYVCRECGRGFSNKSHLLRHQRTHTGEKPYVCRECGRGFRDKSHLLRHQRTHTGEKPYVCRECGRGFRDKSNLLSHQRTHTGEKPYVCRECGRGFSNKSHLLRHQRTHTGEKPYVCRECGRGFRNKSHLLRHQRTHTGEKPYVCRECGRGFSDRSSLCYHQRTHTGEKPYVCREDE

| SMILES | inhibition at 10 µM |
| --- | --- |
| Cc1nnc2c3ccccc3c(N[C@@H](C)[C@H](c3ccccc3)N(C)C)nn12 [L-Moses] | 4% |
| Cc1c(NC(=O)c2cc(C(N)=O)nc3cc(F)ccc23)c(C(F)(F)F)nn1Cc1ccc(C#N)cc1 [BAY-876] | 0% |
| CO[C@H]1CNC[C@@H](OCC2CCC(F)(F)CC2)[C@@H]1Nc1ncc(-c2cncc(C)c2)c2cc(C)c(=O)[nH]c12 [GSK8814] | 0% |
| Cc1c(NC(=O)c2cc(C(N)=O)nc3cc(F)ccc23)c(C(F)(F)F)nn1Cc1ccc(C(C)(C)C)cc1 [BAY-588] | 3% |

Biological target: T10, PRMT6 (Homo sapiens, UniProt Q96LA8)
T10 construct: purchased DiscoverX BROMOscan (bromodomains); SGC in-house methyltransferase panel
Assay: Methyl transferase scintillation proximity assay
Type: biochemical
Conditions: average of two measurements, read-out: MTases Inhibition (%)
Procedure: as §1

| SMILES | inhibition at 10 µM |
| --- | --- |
| Cc1nnc2c3ccccc3c(N[C@@H](C)[C@H](c3ccccc3)N(C)C)nn12 [L-Moses] | 5% |
| Cc1c(NC(=O)c2cc(C(N)=O)nc3cc(F)ccc23)c(C(F)(F)F)nn1Cc1ccc(C#N)cc1 [BAY-876] | -3% |
| CO[C@H]1CNC[C@@H](OCC2CCC(F)(F)CC2)[C@@H]1Nc1ncc(-c2cncc(C)c2)c2cc(C)c(=O)[nH]c12 [GSK8814] | 0% |
| Cc1c(NC(=O)c2cc(C(N)=O)nc3cc(F)ccc23)c(C(F)(F)F)nn1Cc1ccc(C(C)(C)C)cc1 [BAY-588] | 4% |

Biological target: T11, PRMT8 (Homo sapiens, UniProt Q9NR22)
T11 construct: purchased DiscoverX BROMOscan (bromodomains); SGC in-house methyltransferase panel
Assay: Methyl transferase scintillation proximity assay
Type: biochemical
Conditions: average of two measurements, read-out: MTases Inhibition (%)
Procedure: as §1

| SMILES | inhibition at 10 µM |
| --- | --- |
| Cc1nnc2c3ccccc3c(N[C@@H](C)[C@H](c3ccccc3)N(C)C)nn12 [L-Moses] | 5% |
| Cc1c(NC(=O)c2cc(C(N)=O)nc3cc(F)ccc23)c(C(F)(F)F)nn1Cc1ccc(C#N)cc1 [BAY-876] | 9% |
| CO[C@H]1CNC[C@@H](OCC2CCC(F)(F)CC2)[C@@H]1Nc1ncc(-c2cncc(C)c2)c2cc(C)c(=O)[nH]c12 [GSK8814] | 5% |
| Cc1c(NC(=O)c2cc(C(N)=O)nc3cc(F)ccc23)c(C(F)(F)F)nn1Cc1ccc(C(C)(C)C)cc1 [BAY-588] | 3% |

Biological target: T12, PRC2-EZH1 (Homo sapiens, UniProt Q92800)
T12 construct: purchased DiscoverX BROMOscan (bromodomains); SGC in-house methyltransferase panel
Assay: Methyl transferase scintillation proximity assay
Type: biochemical
Conditions: average of two measurements, read-out: MTases Inhibition (%)
Procedure: as §1

T12 sequence (Q92800 whole entry): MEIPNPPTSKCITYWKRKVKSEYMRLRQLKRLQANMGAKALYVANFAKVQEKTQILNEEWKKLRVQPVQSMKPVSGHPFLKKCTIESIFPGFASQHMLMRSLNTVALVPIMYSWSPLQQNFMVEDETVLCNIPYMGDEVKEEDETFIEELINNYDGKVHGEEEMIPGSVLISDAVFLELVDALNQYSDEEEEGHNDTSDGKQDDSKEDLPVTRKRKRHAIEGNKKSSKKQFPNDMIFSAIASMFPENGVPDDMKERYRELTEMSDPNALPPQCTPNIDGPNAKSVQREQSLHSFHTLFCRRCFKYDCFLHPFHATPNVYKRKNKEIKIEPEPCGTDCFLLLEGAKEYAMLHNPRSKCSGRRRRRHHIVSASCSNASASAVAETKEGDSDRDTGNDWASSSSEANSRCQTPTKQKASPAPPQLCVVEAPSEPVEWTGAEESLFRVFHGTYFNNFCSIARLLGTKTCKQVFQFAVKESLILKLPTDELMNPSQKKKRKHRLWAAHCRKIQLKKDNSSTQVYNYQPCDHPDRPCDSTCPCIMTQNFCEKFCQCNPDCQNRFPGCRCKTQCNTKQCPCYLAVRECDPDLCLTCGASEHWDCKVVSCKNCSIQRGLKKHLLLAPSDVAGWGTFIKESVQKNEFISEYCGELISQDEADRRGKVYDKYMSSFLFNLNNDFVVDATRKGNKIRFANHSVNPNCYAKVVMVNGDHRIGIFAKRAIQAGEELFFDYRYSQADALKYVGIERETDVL
T12 sequence (O75530 whole entry partner): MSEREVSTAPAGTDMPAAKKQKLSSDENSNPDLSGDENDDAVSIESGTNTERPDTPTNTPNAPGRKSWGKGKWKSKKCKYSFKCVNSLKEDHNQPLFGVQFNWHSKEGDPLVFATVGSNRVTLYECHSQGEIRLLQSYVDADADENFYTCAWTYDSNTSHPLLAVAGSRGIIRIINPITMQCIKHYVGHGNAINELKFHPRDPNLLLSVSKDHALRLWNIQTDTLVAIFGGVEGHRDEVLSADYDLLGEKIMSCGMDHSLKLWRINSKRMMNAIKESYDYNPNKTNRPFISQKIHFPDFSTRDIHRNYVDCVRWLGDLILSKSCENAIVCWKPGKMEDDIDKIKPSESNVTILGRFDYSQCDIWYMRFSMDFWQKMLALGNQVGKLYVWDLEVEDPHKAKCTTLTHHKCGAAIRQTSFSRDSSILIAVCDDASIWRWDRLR
T12 sequence (Q15022 whole entry partner): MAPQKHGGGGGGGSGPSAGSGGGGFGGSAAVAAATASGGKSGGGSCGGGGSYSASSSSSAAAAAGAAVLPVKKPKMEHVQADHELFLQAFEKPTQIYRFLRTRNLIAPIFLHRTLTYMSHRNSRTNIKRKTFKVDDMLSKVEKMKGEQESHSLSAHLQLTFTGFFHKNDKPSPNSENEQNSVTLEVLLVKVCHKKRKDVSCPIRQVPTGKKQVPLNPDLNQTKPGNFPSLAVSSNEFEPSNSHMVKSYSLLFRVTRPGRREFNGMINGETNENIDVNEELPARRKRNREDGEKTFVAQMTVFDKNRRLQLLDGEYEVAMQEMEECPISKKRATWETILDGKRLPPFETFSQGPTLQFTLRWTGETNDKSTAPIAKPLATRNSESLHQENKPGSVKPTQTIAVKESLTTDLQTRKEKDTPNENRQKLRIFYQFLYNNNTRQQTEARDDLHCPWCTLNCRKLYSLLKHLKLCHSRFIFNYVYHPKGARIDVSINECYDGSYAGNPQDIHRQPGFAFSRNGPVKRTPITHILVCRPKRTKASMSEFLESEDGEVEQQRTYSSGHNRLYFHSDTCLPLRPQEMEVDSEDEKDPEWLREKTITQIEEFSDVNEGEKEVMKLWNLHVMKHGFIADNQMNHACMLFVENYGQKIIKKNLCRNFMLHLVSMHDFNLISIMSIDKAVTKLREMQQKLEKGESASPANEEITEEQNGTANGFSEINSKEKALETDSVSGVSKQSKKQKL

| SMILES | inhibition at 10 µM |
| --- | --- |
| Cc1nnc2c3ccccc3c(N[C@@H](C)[C@H](c3ccccc3)N(C)C)nn12 [L-Moses] | 5% |
| Cc1c(NC(=O)c2cc(C(N)=O)nc3cc(F)ccc23)c(C(F)(F)F)nn1Cc1ccc(C#N)cc1 [BAY-876] | -4% |
| CO[C@H]1CNC[C@@H](OCC2CCC(F)(F)CC2)[C@@H]1Nc1ncc(-c2cncc(C)c2)c2cc(C)c(=O)[nH]c12 [GSK8814] | 1% |
| Cc1c(NC(=O)c2cc(C(N)=O)nc3cc(F)ccc23)c(C(F)(F)F)nn1Cc1ccc(C(C)(C)C)cc1 [BAY-588] | 3% |
